Data published in patent US11844845B2, “Cell penetrating peptide, conjugate comprising same, and composition comprising conjugate” (GEMVAX & KAEL CO., LTD., priority 2012, dated 2023).

test system: HeLa cell; assay: Cell penetration of pep(CPP)-FITC conjugate in HeLa cell line, flow cytometry (FACS); type: cell-based, Homo sapiens; settings: HeLa cells, 20 uM FITC-fused peptide, 37° C. for an hour, control = FITC only
Procedure: Homo sapiens cervix adenocarcinoma cell line as HeLa cell lines were purchased from ATCC (American Type Cell Culture). The cells were cultured in MEM supplemented with 10% fetal bovine serum (Invitrogen, USA), Earle's salts, non-essential amino acids, sodium pyruvate and 100 μg/ml penicillin and 10 units/ml streptomycin and cultured at 37° C., 5% CO2 incubator.
Flow cytometry and Confocal microscope analysis were performed to compare the between degree of cellular uptake of the cells were treated with SEQ ID NO: 2 to SEQ ID NO: 178, pep (CPP) and control.
The cell line was divided in a 6-well plate and cultured in a medium containing 10% fetal bovine serum (Invitrogen, USA), 100 μg/ml penicillin, 100 units/ml streptomycin at 37° C. 5% CO2 incubator for 12 hours. After washing the cell line with PBS, starvation was induced in a Minimum Essential Medium for an hour. 20 uM of each carrier peptide was treated and cultured at 37° C. for an hour. After repeating the step of washing the cells with PBS for three times, Trypsin-EDTA was treated form 10 mins at 37° C. to separate the carrier peptide on the outside of the cell. cells were collected with refrigerated PBS and centrifugation was performed to repeat the step of washing the cells for three times. After then, the cells were suspended in 0.5 ml of PBS containing 4% Paraformaldehyde and fluorescence of the cells was analyzed using FACS Calibur (Becton Dickinson). The cellular uptake aspect of control and various peptides combined with FITC was compared and analyzed by MFI (Mean Fluorescence Intensity).
Analysis results shown in FIGS. 2 to 29 are given in detail in Table 7 below.

Substance	cellular uptake, MFI (Mean Fluorescence Intensity)
AEVRQHREARPALLTSRLRFIPK (listed as Homo sapiens) [Pep-RIA-7]	16.49 ± 1.35
AEVRQHREARPALLTSRLRFIPKP (listed as Homo sapiens) [Pep-RIA-51]	15.13 ± 1.03
AEVRQHREARPALLTSRLRFIPKPD (listed as Homo sapiens) [Pep-RIA-52]	15.49 ± 0.29
AEVRQHREARPALLTSRLRFIPKPDG (listed as Homo sapiens) [Pep-RIA-53]	15.85 ± 0.74
AEVRQHREARPALLTSRLRFIPKPDGL (listed as Homo sapiens) [Pep-RIA-54]	13.71 ± 0.11
AEVRQHREARPALLTSRLRFIPKPDGLR (listed as Homo sapiens) [Pep-RIA-55]	18.75 ± 1.51
AEVRQHREARPALLTSRLRFIPKPDGLRPI (listed as Homo sapiens) [Pep-RIA-57]	16.75 ± 0.48
ALL (listed as Homo sapiens) [Pep-RIA-145]	13.85 ± 0.38
ALLT (listed as Homo sapiens) [Pep-RIA-144]	14.54 ± 0.21
ALLTS (listed as Homo sapiens) [Pep-RIA-143]	13.24 ± 0.37
ALLTSR (listed as Homo sapiens) [Pep-RIA-142]	13.23 ± 0.57
ALLTSRLR (listed as Homo sapiens) [Pep-RIA-107]	16.41 ± 1.36
ALLTSRLRF (listed as Homo sapiens) [Pep-RIA-140]	21.18 ± 0.11
ALLTSRLRFIP (listed as Homo sapiens) [Pep-RIA-139]	34.19 ± 1.43
ALLTSRLRFIPK (listed as Homo sapiens) [Pep-RIA-94]	21.07 ± 1.56
ARP (listed as Homo sapiens) [Pep-RIA-120]	10.04 ± 0.53
ARPA (listed as Homo sapiens) [Pep-RIA-119]	11.19 ± 0.61
ARPAL (listed as Homo sapiens) [Pep-RIA-118]	11.41 ± 1.03
ARPALL (listed as Homo sapiens) [Pep-RIA-117]	15.06 ± 0.58
ARPALLT (listed as Homo sapiens) [Pep-RIA-116]	11.32 ± 0.99
ARPALLTS (listed as Homo sapiens) [Pep-RIA-115]	12.13 ± 0.34
ARPALLTSRL (listed as Homo sapiens) [Pep-RIA-113]	11.54 ± 1.57
ARPALLTSRLR (listed as Homo sapiens) [Pep-RIA-112]	15.96 ± 1.24
ARPALLTSRLRF (listed as Homo sapiens) [Pep-RIA-111]	20.53 ± 0.21
ARPALLTSRLRFI (listed as Homo sapiens) [Pep-RIA-110]	11.89 ± 0.68
ARPALLTSRLRFIP (listed as Homo sapiens) [Pep-RIA-104]	22.51 ± 0.96
ARPALLTSRLRFIPK (listed as Homo sapiens) [Pep-RIA-91]	19.96 ± 0.51
EAEVRQHREARPALLTSRLRFIPK (listed as Homo sapiens) [Pep-RIA-8]	14.12 ± 0.79

Substance	cellular uptake, MFI (Mean Fluorescence Intensity)
EAR (listed as Homo sapiens) [Pep-RIA-90]	9.77 ± 0.97
EARP (listed as Homo sapiens) [Pep-RIA-89]	9.13 ± 0.77
EARPA (listed as Homo sapiens) [Pep-RIA-88]	8.89 ± 0.61
EARPAL (listed as Homo sapiens) [Pep-RIA-87]	9.6 ± 1.76
EARPALL (listed as Homo sapiens) [Pep-RIA-86]	9.95 ± 2.34
EARPALLT (listed as Homo sapiens) [Pep-RIA-85]	10.1 ± 0.34
EARPALLTS (listed as Homo sapiens) [Pep-RIA-84]	10.32 ± 0.49
EARPALLTSR (listed as Homo sapiens) [Pep-RIA-83]	10.27 ± 0.25
EARPALLTSRL (listed as Homo sapiens) [Pep-RIA-82]	10.12 ± 0.95
EARPALLTSRLR (listed as Homo sapiens) [Pep-RIA-81]	14.63 ± 0.22
EARPALLTSRLRF (listed as Homo sapiens) [Pep-RIA-80]	14.7 ± 0.79
EARPALLTSRLRFI (listed as Homo sapiens) [Pep-RIA-79]	10.73 ± 1.18
EARPALLTSRLRFIP (listed as Homo sapiens) [Pep-RIA-78]	13.95 ± 0.57
EARPALLTSRLRFIPKP (listed as Homo sapiens) [Pep-RIA-64]	15.51 ± 0.58
EARPALLTSRLRFIPKPD (listed as Homo sapiens) [Pep-RIA-65]	12.84 ± 1.11
EARPALLTSRLRFIPKPDG (listed as Homo sapiens) [Pep-RIA-66]	13.46 ± 0.19
EARPALLTSRLRFIPKPDGLR (listed as Homo sapiens) [Pep-RIA-68]	14.94 ± 1.88
EARPALLTSRLRFIPKPDGLRP (listed as Homo sapiens) [Pep-RIA-69]	13.72 ± 0.68
EARPALLTSRLRFIPKPDGLRPI (listed as Homo sapiens) [Pep-RIA-70]	16.32 ± 0.44
EARPALLTSRLRFIPKPDGLRPIV (listed as Homo sapiens) [Pep-RIA-71]	17.21 ± 0.52
EARPALLTSRLRFIPKPDGLRPIVN (listed as Homo sapiens) [Pep-RIA-72]	21.7 ± 1.21
EARPALLTSRLRFIPKPDGLRPIVNM (listed as Homo sapiens) [Pep-RIA-73]	24.33 ± 0.89
EARPALLTSRLRFIPKPDGLRPIVNMD (listed as Homo sapiens) [Pep-RIA-74]	21.77 ± 2.01
EARPALLTSRLRFIPKPDGLRPIVNMDY (listed as Homo sapiens) [Pep-RIA-75]	26.21 ± 1.29
EARPALLTSRLRFIPKPDGLRPIVNMDYV (listed as Homo sapiens) [Pep-RIA-76]	22.07 ± 0.64
EARPALLTSRLRFIPKPDGLRPIVNMDYVV (listed as Homo sapiens) [Pep-RIA-77]	87.67 ± 0.93
ELSEAEVRQHREARPALLTSRLRFIPK (listed as Homo sapiens) [Pep-RIA-11]	15.22 ± 0.23
